According to ChEMBL document CHEMBL3244030, “2-Methoxyphenylethanolamines, potential beta-adrenergic blocking agents” (J Med Chem, 1978):
Active and inactive are the calls of the source. The rule behind the calls is not given here.

How the values were obtained:
[1] = biological target: Beta-2 adrenergic receptor (Cavia porcellus, UniProt Q8K4Z4); test: Antagonist activity at beta2 adrenoceptor in guinea pig trachea assessed as inhibition of isoproterenol-induced response after 20 mins; details: read-out: pA2 (converted)
Beta-2 adrenergic receptor, sequence (Q8K4Z4 whole entry): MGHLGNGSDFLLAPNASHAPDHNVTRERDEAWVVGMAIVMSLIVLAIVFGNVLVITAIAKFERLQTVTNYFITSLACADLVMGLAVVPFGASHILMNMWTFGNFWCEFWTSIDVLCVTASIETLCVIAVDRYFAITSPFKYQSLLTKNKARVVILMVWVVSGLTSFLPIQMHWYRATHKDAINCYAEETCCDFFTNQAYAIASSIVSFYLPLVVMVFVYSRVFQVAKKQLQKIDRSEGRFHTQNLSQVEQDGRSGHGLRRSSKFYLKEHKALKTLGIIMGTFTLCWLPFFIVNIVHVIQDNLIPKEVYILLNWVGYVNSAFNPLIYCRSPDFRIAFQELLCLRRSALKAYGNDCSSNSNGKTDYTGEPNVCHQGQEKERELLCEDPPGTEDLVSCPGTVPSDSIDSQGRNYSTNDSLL

[2] = biological target: Beta-1 adrenergic receptor (Cavia porcellus, UniProt B0FL73); test: Antagonist activity at beta1 adrenoceptor in guinea pig atrium assessed as inhibition of isoproterenol-induced response after 20 mins; parameters: species or system Cardiac atrium; details: read-out: pA2 (converted)
Beta-1 adrenergic receptor, sequence (B0FL73 whole entry): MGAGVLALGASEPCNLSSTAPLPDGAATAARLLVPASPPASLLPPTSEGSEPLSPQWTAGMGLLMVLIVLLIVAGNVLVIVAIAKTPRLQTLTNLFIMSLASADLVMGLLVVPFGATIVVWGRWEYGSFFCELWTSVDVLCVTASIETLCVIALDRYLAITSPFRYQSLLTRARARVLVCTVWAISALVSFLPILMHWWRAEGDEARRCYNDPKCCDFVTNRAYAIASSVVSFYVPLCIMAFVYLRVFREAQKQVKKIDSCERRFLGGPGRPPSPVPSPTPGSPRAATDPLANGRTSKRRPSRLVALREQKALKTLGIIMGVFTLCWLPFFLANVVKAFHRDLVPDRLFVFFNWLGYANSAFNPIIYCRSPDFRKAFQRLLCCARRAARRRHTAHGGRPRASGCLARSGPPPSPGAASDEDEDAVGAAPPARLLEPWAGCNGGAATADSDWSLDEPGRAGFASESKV

Cavia porcellus = species: Cavia porcellus; test: Selectivity ratio for beta1 adrenoceptor in guinea pig atrium over beta2 adrenoceptor in guinea pig trachea; type: tissue-based; details: Cardiac atrium
[3] = biological target: Beta-2 adrenergic receptor (Cavia porcellus) (UniProt Q8K4Z4); test: Intrinsic activity at beta2 adrenoceptor in guinea pig atrium relative to isoproterenol; details: Cardiac atrium
Beta-2 adrenergic receptor (Cavia porcellus), sequence (Q8K4Z4 whole entry, looked up): as the sequence (Q8K4Z4 whole entry) above

[4] = biological target: Beta-1 adrenergic receptor (Cavia porcellus) (UniProt B0FL73); test: Intrinsic activity at beta1 adrenoceptor in guinea pig atrium relative to isoproterenol; details: Cardiac atrium
Beta-1 adrenergic receptor (Cavia porcellus), sequence (B0FL73 1-467): as the sequence (B0FL73 whole entry) above

[5] = biological target: Beta-1 adrenergic receptor (Cavia porcellus) (UniProt B0FL73); test: Competitive inhibition of beta1 adrenoceptor in guinea pig atrium assessed as inhibition of isoproterenol-induced response after 20 mins by Schild plot analysis; details: Cardiac atrium
[6] = biological target: Beta-1 adrenergic receptor (Cavia porcellus) (UniProt B0FL73); test: Partial agonist activity at beta1 adrenoceptor in guinea pig atrium; details: Cardiac atrium
[7] = biological target: Beta-2 adrenergic receptor (Cavia porcellus) (UniProt Q8K4Z4); test: Partial agonist at beta2 adrenoceptor in guinea pig trachea

`Cc1cccc(C(O)CNC(C)C)c1` (stereo not given) gave a Kb [1] of 2000 nM and a Kb [2] of 794 nM.
`COc1cc(Br)ccc1C(O)CNC(C)C` (stereo not given) showed a Kb [1] of 13.5 nM, a Kb [2] of 5.75 nM and a Selectivity ratio (Cavia porcellus) of 2. For the same molecule, the Intrinsic activity [3] was 0.2, the Intrinsic activity [4] was 0.2 and the inhibition [5] was “Active”.
With `Cc1ccc(C(O)CNC(C)C)cc1` (stereo not given) the Kb [1] was 316 nM and the Kb [2] was 126 nM.
`COc1ccc(Br)cc1C(O)CNC(C)C` (stereo not given) was tested, and the Kb [1] was 933 nM and the Kb [2] was 1480 nM.
In the case of `CC(C)NCC(O)c1ccc(Br)cc1` (stereo not given), the Kb [1] is reported as 200 nM and the Kb [2] is reported as 158 nM.
`CC(C)NCC(O)c1cccc(Br)c1` (stereo not given) showed a Kb [1] of 1260 nM and a Kb [2] of 631 nM.
`COc1ccc(C)cc1C(O)CNC(C)C` (stereo not given) was tested, and the Kb [1] was 2510 nM and the Kb [2] was 2510 nM.
With `COc1ccccc1C(O)CNC(C)C` (stereo not given) the Kb [1] was 120 nM, the Kb [2] was 617 nM and the Intrinsic activity [3] was 0.5. For the same molecule, the Intrinsic activity [4] was 0.5, the pD2 [6] was 6.3 and the pD2 [7] was 6.8.
In the case of `COc1cc(C)ccc1C(O)CNC(C)C` (stereo not given), the Kb [1] is reported as 398 nM, the Kb [2] is reported as 10 nM and the Selectivity ratio (Cavia porcellus) is reported as 40. For the same molecule, the Intrinsic activity [3] was 0.2, the Intrinsic activity [4] was 0.2 and the inhibition [5] was “Active”.
